{
  "source": "patent US8440702B2",
  "about": "“1,3-oxazolidin -2-one derivatives useful as CETP inhibitors” (Merck Sharp & Dohme Corp., priority 2005, dated 2013)",
  "origin": "cited, not measured here",
  "conditions": "clinical trials terminated",
  "data": [
    {"smiles": "CCOC(=O)N1c2ccc(C(F)(F)F)cc2[C@@H](N(Cc2cc(C(F)(F)F)cc(C(F)(F)F)c2)C(=O)OC)C[C@H]1CC", "note": "[torcetrapib]", "values": [
      {"measurement": "mortality in patients using the drug during outcomes studies", "result": "increased mortality"}
    ]}
  ]
}
